IC50 and Activity data for 24 molecules are collected here from ChEMBL document CHEMBL1148869, “Synthesis and SAR studies of potent imidazopyridine anticoccidial agents” (Bioorg Med Chem Lett, 2007).

By IC50 is commonly meant the point on the concentration scale where inhibition reaches its midpoint.

The target of assay [1] is cGMP-dependent protein kinase (Eimeria tenella, UniProt Q8MMZ8). The experiment in a line: Inhibition of Et-PKG.
For assay [2], the system named is Eimeria acervulina. The experiment in a line: Anticoccidial activity against Eimeria acervulina infected Chick assessed as reduction in oocyst production at 50 ppm after 7 days. The assay is classed as functional. Also noted: scale not given: the % may be the effect or the level left.
The subject of assay [3] is Eimeria tenella. Nature of the assay: Anticoccidial activity against Eimeria tenella infected Chick assessed as reduction in oocyst production at 50 ppm after 7 days. Format: functional. Also noted: scale not given: the % may be the effect or the level left.
In assay [4] the test system is Eimeria acervulina. The experiment in a line: Anticoccidial activity against Eimeria acervulina infected Chick assessed as reduction in oocyst production at 25 ppm after 7 days. The assay is classed as functional. Also noted: scale not given: the % may be the effect or the level left.
The test system of assay [5] is Eimeria tenella. The experiment in a line: Anticoccidial activity against Eimeria tenella infected Chick assessed as reduction in oocyst production at 25ppm after 7 days. Format: functional. Also noted: scale not given: the % may be the effect or the level left.
For assay [6], the system named is Eimeria acervulina. Nature of the assay: Anticoccidial activity against Eimeria acervulina infected Chick assessed as reduction in oocyst production at 12.5 ppm after 7 days. Format: functional. Also noted: scale not given: the % may be the effect or the level left.
The subject of assay [7] is Eimeria tenella. Nature of the assay: Anticoccidial activity against Eimeria tenella infected Chick assessed as reduction in oocyst production at 12.5 ppm after 7 days. Also on record: scale not given: the % may be the effect or the level left. The assay is classed as functional.

The structures appear in SMILES notation.

Chain of cGMP-dependent protein kinase (Q8MMZ8 whole entry): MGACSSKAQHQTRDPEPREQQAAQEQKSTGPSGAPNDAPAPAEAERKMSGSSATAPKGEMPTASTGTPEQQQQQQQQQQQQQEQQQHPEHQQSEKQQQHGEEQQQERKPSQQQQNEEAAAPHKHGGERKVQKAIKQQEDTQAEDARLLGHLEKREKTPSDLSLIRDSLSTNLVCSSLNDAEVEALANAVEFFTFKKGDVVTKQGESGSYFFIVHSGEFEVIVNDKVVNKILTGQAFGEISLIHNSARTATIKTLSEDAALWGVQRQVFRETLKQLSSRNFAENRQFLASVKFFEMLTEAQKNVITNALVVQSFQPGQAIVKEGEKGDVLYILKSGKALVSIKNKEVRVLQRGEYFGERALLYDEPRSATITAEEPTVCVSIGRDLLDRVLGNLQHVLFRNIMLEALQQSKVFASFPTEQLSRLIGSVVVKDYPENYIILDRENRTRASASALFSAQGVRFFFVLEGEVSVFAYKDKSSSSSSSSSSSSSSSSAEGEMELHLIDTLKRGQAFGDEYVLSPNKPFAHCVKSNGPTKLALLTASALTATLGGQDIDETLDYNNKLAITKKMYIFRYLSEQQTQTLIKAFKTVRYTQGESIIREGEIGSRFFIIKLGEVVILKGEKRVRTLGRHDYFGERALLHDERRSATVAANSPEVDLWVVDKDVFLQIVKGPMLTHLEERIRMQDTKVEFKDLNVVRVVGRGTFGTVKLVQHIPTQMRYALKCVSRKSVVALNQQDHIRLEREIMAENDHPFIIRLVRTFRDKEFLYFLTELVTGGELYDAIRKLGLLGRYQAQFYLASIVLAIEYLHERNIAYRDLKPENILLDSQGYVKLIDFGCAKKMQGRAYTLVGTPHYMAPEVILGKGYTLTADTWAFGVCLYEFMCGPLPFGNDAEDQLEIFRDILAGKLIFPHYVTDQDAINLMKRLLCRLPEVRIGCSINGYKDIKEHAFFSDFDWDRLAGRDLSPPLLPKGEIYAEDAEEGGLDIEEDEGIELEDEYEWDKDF

On to `C[C@H](Nc1nccc(-c2c(-c3ccc(F)cc3)nc3cc(CN(C)CC(=O)N4CCCC4)ccn23)n1)c1ccccc1`, for which 0.39 nM corresponded to half-maximal inhibition in assay [1] (IC50). Further, the Activity was less than 50% in the assay with Eimeria acervulina [2] and greater than 80% in the assay on Eimeria tenella [3].
In the case of `CC(C)N(C)Cc1ccn2c(-c3ccnc(NCC(C)(C)C)n3)c(-c3ccc(F)cc3)nc2c1`, the Activity with Eimeria acervulina [4] and in the assay on Eimeria tenella [5] was less than 50% in each case. Moreover, in assay [1], the IC50 was found to be 0.6 nM.
On to `CN(C)Cc1ccn2c(-c3ccnc(NCc4ccccc4)n3)c(-c3ccc(F)cc3)nc2c1`, for which the Activity with Eimeria acervulina [4] and in the assay on Eimeria tenella [5] was greater than 80% each time.
For the molecule `CN(C)Cc1ccn2c(-c3ccnc(NCC(C)(C)C)n3)c(-c3ccc(F)cc3)nc2c1`, the Activity is less than 50% with Eimeria acervulina [4] and greater than 80% with Eimeria tenella [5]. This molecule returned an IC50 in assay [1] of 0.28 nM.
Consider `CN(C)Cc1ccn2c(-c3ccnc(NC(C)(C)C)n3)c(-c3ccc(F)cc3)nc2c1`, for which the midpoint of inhibition in assay [1], the IC50, lay at 0.31 nM.
In the case of `C[C@H](Nc1nccc(-c2c(-c3ccc(F)cc3)nc3cc(CN(C)CC4CCCO4)ccn23)n1)c1ccccc1` (stereo partly drawn), the Activity with Eimeria acervulina [4] is less than 50%; in the assay with Eimeria tenella [5], greater than 80%. In addition, the IC50 in assay [1] stood at 0.27 nM.
Molecule `CC(C)Nc1nccc(-c2c(-c3ccc(F)cc3)nc3cc(CN4CCC4)ccn23)n1` yielded an IC50 in assay [1] of 0.86 nM.
Turning to `CCN(C)Cc1ccn2c(-c3ccnc(N[C@@H](C)c4ccccc4)n3)c(-c3ccc(F)cc3)nc2c1`, the IC50 in assay [1] came to 0.13 nM. For the same molecule, the Activity in the assay with Eimeria acervulina [2] and in the assay on Eimeria tenella [3] was greater than 80% in each case.
With `CC(C)N(C)Cc1ccn2c(-c3ccnc(N[C@@H](C)c4ccccc4)n3)c(-c3ccc(F)cc3)nc2c1`, the Activity is greater than 80% in the assay with Eimeria acervulina [4] and less than 50% with Eimeria tenella [5]. In assay [1], this molecule returned an IC50 of 0.11 nM.
As for `CC(C)NCc1ccn2c(-c3ccnc(N[C@@H](C)c4ccccc4)n3)c(-c3ccc(F)cc3)nc2c1`, the Activity in the assay on Eimeria acervulina [4] and in the assay on Eimeria tenella [5] was greater than 80% throughout. The same molecule returned an IC50 in assay [1] of 0.05 nM.
Turning to `CCN(C)Cc1ccn2c(-c3ccnc(NCC(C)(C)C)n3)c(-c3ccc(F)cc3)nc2c1`, the Activity with Eimeria acervulina [4] is given as less than 50%; in the assay on Eimeria tenella [5] it was greater than 80%. The IC50 in assay [1] was determined as 0.29 nM.
Turning to `CC(C)(C)CNc1nccc(-c2c(-c3ccc(F)cc3)nc3cc(CN4CCC4)ccn23)n1`, the Activity in the assay with Eimeria acervulina [4] and in the assay on Eimeria tenella [5] was less than 0% throughout. The same molecule registered a half-maximal inhibitory concentration (IC50) in assay [1] of 0.45 nM.
`CCOC(=O)N1CCN(Cc2ccn3c(-c4ccnc(N[C@@H](C)c5ccccc5)n4)c(-c4ccc(F)cc4)nc3c2)CC1`: the midpoint of inhibition in assay [1], the IC50, lay at 5.6 nM. The Activity in the assay on Eimeria acervulina [2] and in the assay with Eimeria tenella [3] was less than 50% each time.
As to `C[C@H](Nc1nccc(-c2c(-c3ccc(F)cc3)nc3cc(CN(C)CCNS(C)(=O)=O)ccn23)n1)c1ccccc1`, the Activity in the assay on Eimeria acervulina [4] is listed as less than 50%; with Eimeria tenella [5], greater than 80%. In assay [1], this molecule had an IC50 of 0.15 nM.
Regarding `CN(C)Cc1ccn2c(-c3ccnc(Nc4ccccc4)n3)c(-c3ccc(F)cc3)nc2c1`, the Activity in the assay with Eimeria acervulina [6] is reported as less than 50%; with Eimeria tenella [7], greater than 80%. In assay [1], this molecule displayed a half-maximal inhibitory concentration (IC50) of 0.06 nM.
Take `CC(C)Nc1nccc(-c2c(-c3ccc(F)cc3)nc3cc(CN(C)C)ccn23)n1`: the Activity in the assay on Eimeria acervulina [4] and in the assay on Eimeria tenella [5] was greater than 80% in each case. In assay [1], this molecule displayed an IC50 of 0.2 nM.
Consider `C[C@H](Nc1nccc(-c2c(-c3ccc(F)cc3)nc3cc(CN(C)CCO)ccn23)n1)c1ccccc1`, for which the Activity in the assay on Eimeria acervulina [4] is reported as less than 50%; in the assay on Eimeria tenella [5] it was greater than 80%. 0.11 nM corresponded to half-maximal inhibition in assay [1] (IC50).
`CC(C)N(C)Cc1ccn2c(-c3ccnc(NC(C)(C)C)n3)c(-c3ccc(F)cc3)nc2c1` yielded an IC50 in assay [1] of 2.8 nM.
Turning to `C[C@H](Nc1nccc(-c2c(-c3ccc(F)cc3)nc3cc(CN(C)[C@@H](C)C(=O)N(C)C)ccn23)n1)c1ccccc1`, the Activity with Eimeria acervulina [4] and in the assay with Eimeria tenella [5] was 50% each time. Further, the IC50 in assay [1] stood at 0.26 nM.
In turn, `CC(C)Nc1nccc(-c2c(-c3ccc(F)cc3)nc3cc(CN(C)C(C)C)ccn23)n1` had an IC50 in assay [1] of 1.3 nM.
Regarding `C[C@H](Nc1nccc(-c2c(-c3ccc(F)cc3)nc3cc(CN(C)CCCN(C)C)ccn23)n1)c1ccccc1`, the Activity is given as 50% in the assay on Eimeria acervulina [6] and less than 50% with Eimeria tenella [7]. Further, the IC50 in assay [1] stood at 0.07 nM.
`C[C@H](Nc1nccc(-c2c(-c3ccc(F)cc3)nc3cc(CN(C)CC(=O)N4CCC4)ccn23)n1)c1ccccc1` showed an IC50 in assay [1] of 0.57 nM. The Activity in the assay on Eimeria acervulina [2] and in the assay on Eimeria tenella [3] was less than 50% throughout.
Molecule `C[C@H](Nc1nccc(-c2c(-c3ccc(F)cc3)nc3cc(CN(C)CCN4CCC4)ccn23)n1)c1ccccc1` yielded an IC50 in assay [1] of 0.1 nM. Besides, the Activity in the assay with Eimeria acervulina [2] is less than 50%; with Eimeria tenella [3] it was greater than 80%.
For `C[C@H](Nc1nccc(-c2c(-c3ccc(F)cc3)nc3cc(CN(C)C(CO)CO)ccn23)n1)c1ccccc1` the same measures were 0.15 nM, less than 50% and greater than 80%.
